Read-outs that look alike come from different tables or passages of the source.
Tests used:
[1] = test system: Trypanosoma cruzi epimastigotes (Tulahuen strain); assay: Growth inhibition of epimastigotes (cell counting, 4 days); assay type: cell-based; conditions: 96 h, read-out: Epimastigotes IC50
Experimental: (§1) Trypanosoma cruzi epimastigotes (Tulahuen strain) were grown as previously described. Bloodstream trypomastigotes were obtained from infected CF1 mice by cardiac puncture. Tulahuen strain expressing the β-galactosidase gene was kindly provided by Dr Buckner (University of Washington, USA).
(§2) Cells growth was assessed by counting the number of cells per mL of culture using a Neubauer chamber and was expressed as cellular density (CD). The percentage of inhibition (%I) was calculated as %I = {1 − [(CD4t − CD0)/(CD4c − CD0)]} × 100, where the different CDs represent the cellular density of CD4t, treated parasites on day 4; CD0, parasites on day 0; and CD4c, untreated parasites (control) on day 4.
(§3) The results presented are representative of three to four separate experiments, performed in duplicates or triplicates. All data are expressed as means ± standard errors of the mean (SEM). To calculate the IC50 values, the %I or %L values were plotted against the log of drug concentration (μM) and fitted with a straight line determined by a linear regression (Sigma Plot 10 software). The significance of differences was evaluated using Student' t test, taking a P < 0.05 as significant. Flow cytometry data were analyzed employing the WinMDI 2.9 software.

[2] = test system: bloodstream trypomastigotes; assay: Trypanocidal effect on bloodstream trypomastigotes (24 h, mouse blood); assay type: cell-based; conditions: Trypanosoma cruzi, % lysed parasites
Experimental: as §1
The trypanocidal effects of C1, C2, C3, D and Bnz were also tested on bloodstream trypomastigotes according to a standard WHO protocol slightly modified. Briefly, mouse blood containing trypomastigotes was treated with different concentrations of each compound (0.30 to 350 μM) or Bnz (0.38 to 38 μM). Plates were incubated for 24 h, and surviving parasites were counted in a Neubauer chamber as previously described. Results were expressed as the percentage of lysed parasites (%L) relative to the number of parasites in the control: %L = [1 − (CDt/(CDc)] × 100, where CDt and CDc represent the cellular density of treated and untreated parasites, respectively.
as §3

[3] = test system: amastigotes (Tulahuen strain expressing the β-galactosidase gene) in J774 cells; assay: Amastigote assay in infected J774 cells (β-galactosidase, CPRG); assay type: cell-based; conditions: Trypanosoma cruzi, 168 h, 7 days
Experimental: as §1
For analysis of amastigotes, J774 cells were infected with bloodstream trypomastigotes expressing the β-galactosidase gene at a parasite: cell ratio of 10 : 1. After 24 h, cell cultures were washed and each compound (2 to 100 μM) was added in fresh RPMI medium without phenol red (to avoid interference with absorbance readings at 570 nm). After 7 days, the assay was developed as described. The galactosidase activity was quantified using CPRG as substrate and measuring absorbance at 570 nm in a Microplate Reader (Bio-Rad Laboratories). Since the assayed compounds are coloured, blanks including uninfected cells with different doses of each compound were performed. The percentage of inhibition was calculated as %I = {1 − [(A it − A nit)/(A ic − A nic)]} × 100, where A represents the mean A 570 value recorded for A it, treated infected cells; A nit, treated noninfected cells; A ic, untreated infected cells; and A nic, untreated noninfected cells.
as §3

Cyclic voltammetry = assay type: physicochemical
Experimental: Cyclic voltammograms for C1, C2, and C3 dissolved in 1% DMSO were carried out using an EQMAT instrument with an EQSOFT Processor, at a sweep rate of 0.2 V/s under a nitrogen atmosphere at room temperature, employing lithium perchlorate as supporting electrolyte. A three-electrode cell was used equipped with a vitreous carbon as working electrode, a gold wire as auxiliary electrode, and a saturated calomel as reference electrode.

[4] = test system: superoxide dismutase (SOD); assay: SOD activity in C1-treated epimastigotes; assay type: cell-based, Trypanosoma cruzi; conditions: control without C1 = 100%
Experimental: (§4) Epimastigotes of T. cruzi from a 4 days culture were incubated with C1 (7.5–22.5 μM) during 5–36 hours. Cells were harvested, washed and then the following biochemical assays were carried out.
(§5) (b) Determination of Antioxidant Enzymes Activity. The activities of superoxide dismutase (SOD), ascorbate peroxidase (APx), and trypanothione reductase (TryR) were assayed as previously established.
(§6) Protein concentration was determined according to the method described by Lowry et al.. These values were used to express the specific enzymatic activities as activity per mg of protein.

[5] = test system: ascorbate peroxidase (APx); assay: APx activity in C1-treated epimastigotes; assay type: cell-based, Trypanosoma cruzi; conditions: control without C1 = 100%
Experimental: as §4, §5, §6

[6] = test system: trypanothione reductase (TryR); assay: TryR activity in C1-treated epimastigotes; assay type: cell-based, Trypanosoma cruzi; conditions: control without C1 = 100%
Experimental: as §4, §5, §6

[7] = test system: Epimastigotes of T. cruzi; assay: Intracellular oxidative activity (H2DCFDA flow cytometry); assay type: cell-based, Trypanosoma cruzi; conditions: 7.5, 15 and 22.5 μM; 5, 12 and 24 h; data not shown
Experimental: as §4
(a) Assay of Intracellular Oxidative Activity. The intracellular oxidative activity was assessed by flow cytometry using the oxidant-sensitive fluorescent probe H2DCFDA. As a positive control cells were treated with 0.1 mM H2O2. Stained cells were then analyzed by a FACSCalibur flow cytometer (Becton Dickinson) with an excitation wavelength of 480 nm and an emission wavelength of 530 nm. Flow cytometry results were expressed by the ratio Gmt/Gmc, where Gmt and Gmc correspond to the geometric mean of histograms obtained for treated and untreated cells, respectively.

[8] = test system: Epimastigotes of T. cruzi; assay: Determination of total thiol groups (DTNB); assay type: cell-based, Trypanosoma cruzi
Experimental: as §4
(c) Determination of Total Thiol Groups. The thiol groups content was determined employing the chromogenic compound 5,5′-dithiobis-2-nitrobenzoate (DTNB), as already described.

[9] = test system: Epimastigotes of T. cruzi; assay: Parasite death by Annexin V-FITC/PI staining (flow cytometry); assay type: cell-based, Trypanosoma cruzi; conditions: for early apoptotic cells / late apoptotic cells: 22.5 μM; for early apoptotic cells: 0.8% at 0 h; for late apoptotic cells: 2.8% at 0 h; for viability at 22.5 µM: Trypanosoma cruzi, 95.9% for control (0 h), read-out: viable nonapoptotic cells
Experimental: as §4
Cell viability and phosphatidylserine (PS) exposure on the parasite surface were assessed by propidium iodide (PI) and Annexin V-fluorescein isothiocyanate (FITC) staining, according to the manufacturer's instructions (Invitrogen). Epimastigotes exposed to 30% fresh human serum for 2 h at 28°C were used as positive control. Parasites were analysed by flow cytometry acquiring 20,000 events per sample.

[10] = test system: Epimastigotes of T. cruzi; assay: Mitochondrial membrane potential (DiOC6 staining); assay type: cell-based, Trypanosoma cruzi; conditions: 22.5 μM, 31% for the control (0 h)
Experimental: as §4
(§7) Mitochondrial membrane potential was assessed using two well-established assays: 3,3′-dihexyloxacarbocyanine iodide (DiOC6) staining and the cytochrome c release.
For the DiOC6 assay, epimastigotes (10^6) were permeabilized for 20 min at room temperature with 0.01% saponin, washed, and incubated with 30 nM DiOC6 for 30 min at 37°C. The positive control was done with 250 nM trifluoromethoxy carbonyl cyanide phenyl hydrazone (FCCP) as depolarizing agent. Stained cells were analyzed by flow cytometry with an excitation wavelength of 484 nm and an emission wavelength of 511 nm.

[11] = test system: Epimastigotes of T. cruzi; assay: Cytochrome c release (Western blot, densitometry); assay type: cell-based, Trypanosoma cruzi; conditions: 22.5 μM, at 36 h, relative to level detected after 24 h
Experimental: as §4, §7
To evaluate the cytochrome c release, parasites (3 × 10^8) were resuspended in PBS containing 200 μg/mL digitonin, incubated on ice for 15 min and then centrifuged at 9 000 ×g for 10 min at 4°C. Both, mitochondrial-rich fraction (pellet, resuspended in 50 μL of PBS) and cytosolic fraction (150 μL) were subjected to Western-blot analysis for cytochrome c. Protein extracts (10 μL and 30 μL of mitochondrial and cytosolic fractions, resp.) were resolved by 14% SDS/PAGE, transferred to nitrocellulose membranes, blocked with 3% skimmed milk in PBS, and then incubated with specific antibodies, according to the protocol of Piacenza et al.. Relative intensities of bands were quantified by densitometry using Scion Image software (Scion). Results were expressed in arbitrary units.

T. cruzi = assay: Effect of DTT, ascorbic acid and GSH on anti-T. cruzi activity of C1; assay type: cell-based, Trypanosoma cruzi
Experimental: as §2

[12] = Cytotoxicity assay (MTT, 48 h); assay type: cell-based; conditions: African green monkey, Vero cells
Experimental: Vero cells were cultivated with different concentrations of each compound (12.5–100.0 μM) or Bnz (3.0–3000 μM). After 48 h of incubation, cells were washed and viability was measured by the MTT assay as previously described. The selectivity index (SI) was calculated as the 50% cytotoxic concentration (CC50) obtained with Vero cells divided by the 50% inhibitory concentration (IC50) obtained with T. cruzi.

[13] = 1% DMSO, sweep rate 0.2 V/s, saturated calomel reference electrode

## O=c1c2ccccc2c(C(=S)Nc2ccccc2)c2n1CCN2 [Compound C1, N-phenyl-5-oxo-1,2,3,5-tetrahydroimidazo[1,2-b]isoquinolin-10-carbothioamide]
[1]
  IC50: 1.49 ± 0.28 µM
[2]
  IC50: 34.9 ± 1.2 µM
[3]
  IC50: 1.74 ± 0.3 µM
Cyclic voltammetry; [13]
  anodic peak (irreversible oxidation): 0.78 V
  cathodic peak (irreversible reduction): −1.04 V
[4]; 5 h, 7.5 µM
  SOD activity (%): 95.85 ± 2.50%
[4]; 5 h, 15.0 µM
  SOD activity (%): 99.31 ± 4.30%
[4]; 5 h, 22.5 µM
  SOD activity (%): 90.09 ± 2.30%
[4]; 12 h, 7.5 µM
  SOD activity (%): 99.75 ± 2.90%
[4]; 12 h, 15.0 µM
  SOD activity (%): 103.92 ± 4.30%
[4]; 12 h, 22.5 µM
  SOD activity (%): 88.48 ± 3.20 %
[4]; 24 h, 7.5 µM
  SOD activity (%): 98.74 ± 7.30%
[4]; 24 h, 15.0 µM
  SOD activity (%): 89.78 ± 3.50 %
[4]; 24 h, 22.5 µM
  SOD activity (%): 78.27 ± 4.20 %
[5]; 5 h, 7.5 µM
  APx activity (%): 111.26 ± 7.60%
[5]; 5 h, 15.0 µM
  APx activity (%): 98.31 ± 2.10%
[5]; 5 h, 22.5 µM
  APx activity (%): 105.20 ± 6.20%
[5]; 12 h, 7.5 µM
  APx activity (%): 98.30 ± 2.30%
[5]; 12 h, 15.0 µM
  APx activity (%): 95.91 ± 4.10%
[5]; 12 h, 22.5 µM
  APx activity (%): 93.48 ± 6.20%
[5]; 24 h, 7.5 µM
  APx activity (%): 108.35 ± 9.20%
[5]; 24 h, 15.0 µM
  APx activity (%): 105.30 ± 6.56%
[5]; 24 h, 22.5 µM
  APx activity (%): 96.25 ± 5.80%
[6]; 5 h, 7.5 µM
  TryR activity (%): 152.23 ± 6.38 %
[6]; 5 h, 15.0 µM
  TryR activity (%): 177.17 ± 15.56 %
[6]; 5 h, 22.5 µM
  TryR activity (%): 143.89 ± 4.80 %
[6]; 12 h, 7.5 µM
  TryR activity (%): 188.60 ± 12.30 %
[6]; 12 h, 15.0 µM
  TryR activity (%): 251.62 ± 15.56 %
[6]; 12 h, 22.5 µM
  TryR activity (%): 190.55 ± 14.29 %
[6]; 24 h, 7.5 µM
  TryR activity (%): 165.23 ± 9.80 %
[6]; 24 h, 15.0 µM
  TryR activity (%): 198.27 ± 9.30 %
[6]; 24 h, 22.5 µM
  TryR activity (%): 163.56 ± 7.60 %
[7]
  ratio Gmt/Gmc (H2DCFDA fluorescence): around 1
[8]; 22.5 μM, 24 h of incubation
  decrease of low molecular mass thiols: not more than 20%
[8]; all C1 concentrations tested, 5 and 12 h, data not shown
  level of low molecular mass thiols: remain constant
[9]; 24 h
  early apoptotic cells: 8.7%
  late apoptotic cells: 4.9%
  viability at 22.5 µM: 84.8%
[9]; 36 h
  early apoptotic cells: 51.0%
  late apoptotic cells: 7.7%
  viability at 22.5 µM: 40.4%
[10]; 24 h
  Depolarized cells: 77%
[10]; 36 h
  Depolarized cells: 84%
[11]
  increase of cytochrome c in the parasite cytosol: 2.5–3 times
T. cruzi; C1 1 up to 2.5 μM, at the antioxidant concentrations tested
  effect of DTT and ascorbic acid on the inhibitory action of the drug: considerably enhanced
T. cruzi; GSH 5 μM
  effect of GSH on the inhibitory effect of C1: completely abrogated

## O=c1c2ccccc2c(C(=S)Nc2ccc(Cl)cc2)c2n1CCN2 [Compound C2, N-(4-chlorophenyl)-5-oxo-1,2,3,5-tetrahydroimidazo[1,2-b]isoquinolin-10-carbothioamide]
[1]
  IC50: 5.57 ± 0.53 µM
[2]
  IC50: 306 ± 15 µM
[3]
  IC50: 3.63 ± 0.51 µM

## Cc1ccc(NC(=S)c2c3n(c(=O)c4ccccc24)CCN3)cc1 [Compound C3]
[1]
  IC50: 1.5 ± 0.3 µM
[2]
  IC50: 246 ± 18 µM
[3]
  IC50: 1.5 ± 0.32 µM

## O=C(Nc1ccccc1)c1c2n(c(=O)c3ccccc13)CCN2 [D, 5-oxo-N-phenyl-1,2,3,5-tetrahydroimidazo[1,2-b]isoquinolin-10-carboxamide]
[1]
  IC50: > 25 µM
[2]
  IC50: > 300 µM
[3]
  IC50: 11.4 ± 1.21 µM

## O=C(Cn1ccnc1[N+](=O)[O-])NCc1ccccc1 [Bnz, Benznidazole, reference compound]
[1]
  IC50: 5.49 ± 0.89 µM
[2]
  IC50: 30.3 ± 2.85 µM
[12]
  CC50 at 48 h: 82.8 ± 2.75 µM

## O=c1c2ccccc2cc2n1CCN2 [heterocycle precursor, 2,3-dihydroimidazo[1,2-b]isoquinolin-5(1-H)-one]
[1]
  IC50: > 25 µM
Cyclic voltammetry; subjected to the same potentials as C1
  cathodic and anodic peaks: Neither the cathodic nor the anodic peaks were measurable
